Data from ChEMBL document CHEMBL3097987, “Pyrrolizines: Promising scaffolds for anticancer drugs” (Bioorg Med Chem, 2014).
Blank lines part the entries; values can stand above or below the compound they belong to.

What was measured:
Tubulin = experiment: Inhibition of tubulin (unknown origin) polymerization; type: protein-complex assay, Homo sapiens
[1] = target: Peptidyl-prolyl cis-trans isomerase NIMA-interacting 1 (Homo sapiens, UniProt Q13526); experiment: Inhibition of Pin-1 (unknown origin) using Suc-Ala-Glu-Pro-Phe-pNA as substrate preincubated for 300 seconds followed by substrate addition by UV/Vis spectrophotometric analysis
Peptidyl-prolyl cis-trans isomerase NIMA-interacting 1, sequence (Q13526 whole entry): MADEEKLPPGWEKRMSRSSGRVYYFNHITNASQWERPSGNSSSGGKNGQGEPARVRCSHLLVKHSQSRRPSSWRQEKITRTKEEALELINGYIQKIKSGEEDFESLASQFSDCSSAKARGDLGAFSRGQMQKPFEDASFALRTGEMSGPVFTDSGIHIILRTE

HT-29 = experiment: Cytotoxicity against human HT-29 cells relative to licofelone; type: functional
MDA-MB-231 [2] = experiment: Cytotoxicity against human MDA-MB-231 cells relative to licofelone; type: functional
MCF7 [3] = experiment: Cytotoxicity against human MCF7 cells relative to licofelone; type: functional
MDA-MB-231 [4] = experiment: Cytotoxicity against human MDA-MB-231 cells relative to 5-flurouracil; type: functional
MCF7 [5] = experiment: Cytotoxicity against human MCF7 cells relative to 5-flurouracil; type: functional
Aromatase = target: T1, Aromatase (Homo sapiens, UniProt P11511); experiment: Inhibition of aromatase (unknown origin)
T1 sequence (P11511 whole entry): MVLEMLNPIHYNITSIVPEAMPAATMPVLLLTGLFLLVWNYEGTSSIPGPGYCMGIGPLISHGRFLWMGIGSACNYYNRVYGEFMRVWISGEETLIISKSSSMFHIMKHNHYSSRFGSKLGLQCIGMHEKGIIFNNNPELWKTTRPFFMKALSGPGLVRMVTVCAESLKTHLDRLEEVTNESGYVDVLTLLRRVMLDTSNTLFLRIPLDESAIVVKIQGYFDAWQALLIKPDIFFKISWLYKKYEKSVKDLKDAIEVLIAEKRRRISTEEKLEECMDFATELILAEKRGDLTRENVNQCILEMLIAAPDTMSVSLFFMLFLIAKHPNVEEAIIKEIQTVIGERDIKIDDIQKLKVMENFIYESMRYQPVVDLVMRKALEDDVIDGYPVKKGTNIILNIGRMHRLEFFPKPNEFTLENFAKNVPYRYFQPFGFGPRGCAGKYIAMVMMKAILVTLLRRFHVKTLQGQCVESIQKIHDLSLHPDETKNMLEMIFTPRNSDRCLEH

B16 = experiment: Cytotoxicity against mouse B16 cells assessed as tumor growth inhibition relative to control; type: functional
[6] = Cytotoxicity against mouse mammary carcinoma 755 cells assessed as tumor growth inhibition relative to control; type: functional
[7] = Cytotoxicity against mouse LLC cells assessed as tumor growth inhibition relative to control; type: functional, Lewis lung carcinoma
[8] = Growth inhibition of mouse mammary carcinoma 755 cells relative to control; type: functional
Jensen sarcoma = experiment: Growth inhibition of rat Jensen sarcoma relative to control; type: functional
HT-1080 = experiment: Ratio of cisplatin IC50 to compound IC50 for human HT1080 cells; type: functional
Bel-7402 = experiment: Ratio of cisplatin IC50 to compound IC50 for human Bel7402 cells; type: functional
[9] = Antitumor activity against human HT1080 cells by MTT assay; type: functional, cell-based; conditions: HT-1080
[10] = Antitumor activity against human Bel7402 cells by MTT assay; type: functional, cell-based; conditions: Bel-7402

IC50 (Tubulin): 2.9 µM
SMILES: COc1ccc(-c2csc3c2-n2cccc2C3=O)cc1O

Ki [1]: 9 µM
SMILES: CO[C@@H]1C[C@@H]2[C@@H](COP(=O)(O)O)[C@@H](C(=O)NCc3ccccc3)[C@@H](c3ccc4ccccc4c3)N2C1

SMILES: CC1(C)Cc2c(-c3ccccc3)c(-c3ccc(Cl)cc3)c(C(=O)Cn3cncn3)n2C1
fold change (FC) (HT-29): 2
fold change (FC) (MDA-MB-231 [2]): 2
fold change (FC) (MCF7 [3]): 2
fold change (FC) (MDA-MB-231 [4]): 2
fold change (FC) (MCF7 [5]): 2

IC50 (Aromatase): 3 µM
SMILES: O=C1/C(=C\c2cccnc2)C(c2ccccc2)n2cccc21 (configuration not stated)

IC50 (Aromatase): 0.65 µM
SMILES: O=C1/C(=C\c2ccncc2)C(c2ccccc2)n2cccc21 (configuration not stated)

SMILES: CCOC(=O)c1c2n(c3c(SC)ncnc13)CCC2
TGI (B16): 40%

SMILES: CCOC(=O)Sc1ncnc2c(C(=O)OCC)c3n(c12)CCC3
TGI [6]: 34%
TGI (B16): 40%

SMILES: CCOC(=O)c1c2n(c3c(SCc4ccccc4)ncnc13)CCC2
TGI [7]: 43%
TGI (B16): 40%

SMILES: NC(=O)c1c2n(c3c(-c4ccccc4)ncnc13)CCC2
growth inhibition (GI) [8]: 73%
growth inhibition (GI) (Jensen sarcoma): 73%

SMILES: CN(C)/C=N/C(=O)c1c2n(c3c(-c4ccccc4)ncnc13)CCC2
growth inhibition (GI) [8]: 78%
growth inhibition (GI) (Jensen sarcoma): 78%

SMILES: CSc1sc2c(c1-c1ccc([N+](=O)[O-])cc1)-n1cccc1/C2=N\OCOCCN1CCN(C)CC1
Ratio IC50 (HT-1080): 3.3
Ratio IC50 (Bel-7402): 2.5
IC50 [9]: 8.2 µM
IC50 [10]: 18.2 µM

Ki [1]: 15 µM
SMILES: O=C(NCc1ccccc1)C1C(COP(=O)(O)O)C2CCCN2C1c1ccc2ccccc2c1 (racemic)

Ki [1]: 44 µM
SMILES: O=C(NCc1ccccc1)C1C(COP(=O)(O)O)C2CCCN2C1c1ccccc1 (racemic)

Ki [1]: 16 µM
SMILES: O=C(NCc1ccccc1)C1C(COP(=O)(O)O)C2CCCN2C1c1c(F)c(F)c(F)c(F)c1F (racemic)

Ki [1]: 32 µM
SMILES: O=C(NCc1ccc2c(c1)OCO2)C1C(COP(=O)(O)O)C2CCCN2C1c1ccc2ccccc2c1 (racemic)

SMILES: COc1cc([C@@H]2c3cc4c(cc3C[C@H]3COC(=O)[C@@H]32)OCO4)cc(OC)c1OC [DESOXYPODOPHYLLOTOXIN]
IC50 (Tubulin): 2.4 µM
